Laboratory results taken from PMC4079544, “A Linear Relationship between Crystal Size and Fragment Binding Time Observed Crystallographically: Implications for Fragment Library Screening Using Acoustic Droplet Ejection” (PLoS ONE, 2014).

Target: T1, Lysozyme (Gallus gallus, UniProt P00698)
T1 construct: gene LYZ
Assay: X-ray crystallography of soaked crystals ([…] data sets), ligand occupancy vs soak time; Kd^cryst from fitted Omax
Assay type: binding

T1 sequence (P00698 19-147): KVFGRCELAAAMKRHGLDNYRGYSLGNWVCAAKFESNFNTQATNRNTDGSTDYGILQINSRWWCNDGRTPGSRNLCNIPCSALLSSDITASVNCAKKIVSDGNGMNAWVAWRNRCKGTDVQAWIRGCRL

- Kd: 5.4 mM
Compound: CC(=O)N[C@H]1C(O)O[C@H](CO)[C@@H](O)[C@@H]1O (stereo partly shown) [NAG, N-acetyl glucosamine]
